According to the NIST ThermoML archive (doi:10.1016/j.jct.2009.05.009):

Assay: xn = mol fraction of the nth substance listed
Details: 101.3 kPa, Liquid, Vibrating tube method

CCOS(=O)(=O)[O-].CCn1cc[n+](C)c1 [1-ethyl-3-methylimidazolium ethyl sulfate] + O
mass density [kg/m3]
Details	318.15 K	323.15 K	328.15 K	333.15 K	338.15 K	343.15 K
x2 = 0	–	1224.1	1221.1	1218.1	1215.1	1212
x2 = 0.0514	–	1223	1220	1216.9	1213.8	1210.7
x2 = 0.13	–	1221.3	1218.2	1215.2	1212.1	1208.9
x2 = 0.1783	–	1220.1	1216.9	1213.9	1210.9	1207.8
x2 = 0.2168	–	1219.1	1216	1212.9	1209.9	1206.7
x2 = 0.2642	–	1217.6	1214.6	1211.5	1208.4	1205.3
x2 = 0.3054	–	1216.3	1213.2	1210.1	1207	1203.9
x2 = 0.3568	–	1214.4	1211.2	1208.2	1205.1	1201.9
x2 = 0.4008	–	1212.4	1209.3	1206.2	1203.1	1200
x2 = 0.4613	1212.4	1209.3	1206.1	1203.1	1200	1196.8
x2 = 0.5002	1210.1	1206.9	1203.8	1200.7	1197.6	1194.3
x2 = 0.5584	1206	1202.8	1199.6	1196.4	1193.2	1189.9
x2 = 0.6124	1201.1	1197.8	1194.6	1191.4	1188.1	1184.7
x2 = 0.6698	1194.3	1191	1187.7	1184.3	1180.9	1177.4
x2 = 0.7125	1187.6	1184.3	1181	1177.5	1173.9	1170.4
x2 = 0.7635	1177.2	1173.7	1170.2	1166.8	1163.5	1159.9
x2 = 0.8006	1167	1163.5	1160	1156.6	1153.2	1149.5
x2 = 0.8497	1148.9	1145.2	1141.6	1138.3	1134.9	1131.3
x2 = 0.8963	1123	1119.6	1116.4	1112.9	1109.3	1106
